Read-outs that look alike come from different tables or passages of the source. Where a SMILES comes first, the peptide text is derived from it. [ ]: non-standard residue; d: D form. The star is where a group is joined. Phe(4-NH2) = Nc1ccc(C[C@H](N)C(=O)O)cc1; Pentanoyl = CCCCC(=O)*
Assays:
[1] = 90% human serum, 37 ± 1 °C, 200 µM
Method: Human serum from human male AB plasma was acquired by Sigma-Aldrich-Merk. Water and MeCN were obtained from commercial suppliers and used without further purification. Analytical RP-UHPLC was performed on a Shimadzu Nexera equipped with a Phenomenex Kinetex column (C18, 4.6 mm x 150 mm, […]) and H2O (0.1% TFA) and MeCN (0.1% TFA) as eluents.
Serum stability was evaluated by modification of elsewhere described methods[37]^,[38]. In particular, the human serum was allocated into a 1.5 ml eppendorf tube and temperature equilibrated at 37 ± 1 °C for 15 min. Peptides 1B, and C were dissolved in sterile water to prepare a stock solution of 2 mM and then mixed with the human serum to make a final concentration of 0.2 mM (90% serum). The resulting reaction solution was incubated at 37 ± 1 °C. Aliquots of the reaction solutions were taken at known time intervals (0, 15, 45, 75, 90, 120 min), subjected to serum proteins precipitation by addition of MeCN (double volume respect to the aliquot). The cloudy reaction sample was cooled (4 °C) for 15 min and then spun at 13000 rpm for 10 min to pellet the precipitated serum proteins. The supernatant was then analysed by RP-UHPLC by using a linear elution gradient from 10 to 90% MeCN (0.1% TFA) in water (0.1% TFA) over 20 min. A flow rate of 1 ml/min was used, absorbance was detected at 220 nm, and the analysis was performed at room temperature.

HaCaT cells [2] = settings: 24 h, at 25.0 µM
Method: The human immortalised keratinocytes HaCaT cells (AddexBio, San Diego, CA, USA) were cultured in Dulbecco’s modified Eagle’s medium containing 4 mM glutamine (DMEMg), supplemented with 10% heat-inactivated foetal bovine serum (FBS) and 0.1 mg/ml of penicillin and streptomycin, at 37 °C and 5% CO2, in 25 cm^2 or 75 cm^2 flasks[33].
The colorimetric MTT assay was carried out to measure cellular metabolic activity in terms of cell viability[33]^,[36]. Viable cells are able to reduce, by active mitochondrial dehydrogenases, the yellow salt MTT to purple formazan crystals. Briefly, 4 × 10^4 HaCaT cells, suspended in DMEMg supplemented with 2% FBS, were plated in each well of a 96-well microtiter plate. After overnight incubation, at 37 °C in a 5% CO2 atmosphere, keratinocytes were treated for 24 h with fresh serum-free medium containing the peptides 3B and C at concentrations ranging from 3.12 µM to 25 µM. Afterward, the culture medium was replaced with Hank’s buffer supplemented with 0.5 mg/ml MTT and the plate was incubated at 37 °C and 5% CO2 for 4 h. At the end, acidified isopropanol was employed to dissolve the formazan crystals. Cell viability was calculated, with respect to cells not treated with peptide, by absorbance measurements at 570 nm using a microplate reader (Infinite M200; Tecan, Salzburg, Austria)[33]. […]

Pa1 = assay: microbe, parasite or virus in culture; settings: multidrug resistant clinical isolate
Method: (§1) Clinical strains of P. aeruginosa (Pa1, Pa2 and Pa3), K. pneumoniae (KpCR1, KpCR2 and KpCR3), and S. aureus (Sa1, Sa2 and Sa3) were isolated from bloodstream or pulmonary infections, and belong to a collection of bacterial strains established between 2010 and 2018 at the Department of Molecular Medicine and Medical Biotechnologies (University Federico II, Naples) for research use.
(§2) Identification was performed by sub-culturing on Tryptic Soy Agar (TSA, Becton Dickinson) and by biochemical characterisation using the Vitek II system (Biomerieux). The antimicrobial susceptibility testing of all isolates was determined using Vitek II system and results were interpreted according to European Committee on Antimicrobial Susceptibility Testing (EUCAST version 9.0, 2019). P. aeruginosa was cultured in Brain Heart Infusion broth (BHI, OXOID), S. aureus and K. pneumoniae were cultured in Tryptic Soya broth (TSB, OXOID), under aerobic conditions at 37 °C, for 24 h on an orbital shaker at 200 rpm.
(§3) Minimal inhibitory concentrations (MIC) of all the peptides were determined in Mueller–Hinton medium by the broth microdilution assay, following the procedure already described[22]^,[34]. The compounds were added to bacterial suspension in each well yielding a final cell concentration of 1 × 10^6 CFU/ml and a final compound concentration ranging from 0.78 to 100 µM. Negative control wells were set to contain bacteria in Mueller–Hinton broth plus the amount of vehicle (ethanol) used to dilute each compound. Positive controls included vancomycin (2 µg/ml), tobramycin (4 µg/ml), gentamycin (4 µg/ml), and imipenem (8 µg/ml).

Pa3 = assay: microbe, parasite or virus in culture; settings: multidrug resistant clinical isolate
Method: as §1, §2, §3

KpCR1 = assay: microbe, parasite or virus in culture; settings: carbapenem-resistant clinical isolate
Method: as §1, §2, §3

Sa1 = assay: microbe, parasite or virus in culture
Method: as §1, §2, §3

KpCR3 = assay: microbe, parasite or virus in culture; settings: carbapenem-resistant clinical isolate
Method: as §1, §2, §3

KpCR2 = assay: microbe, parasite or virus in culture; settings: carbapenem-resistant clinical isolate
Method: as §1, §2, §3

Sa3 = assay: microbe, parasite or virus in culture; settings: 24 h
Method: as §1, §2, §3

Pa2 = assay: microbe, parasite or virus in culture; settings: multidrug resistant clinical isolate
Method: as §1, §2, §3

Sa2 = assay: microbe, parasite or virus in culture
Method: as §1, §2, §3

HaCaT cells [3] = settings: at 25.0 µM, ref Merlino et al. [22]; cited from earlier work

Structure (SMILES)	start of partial degradation in human serum [1] [min]	time peptide is stable in human serum [1]	cytotoxicity (HaCaT cells [2]) [%]	Antimicrobial activity (MIC) Pa1 (Pa1) [µM]	Antimicrobial activity (MIC) Pa3 (Pa3) [µM]	Antimicrobial activity (MIC) KpCR1 (KpCR1) [µM]	Antimicrobial activity (MIC) Sa1 (Sa1; 24 h) [µM]	Antimicrobial activity (MIC) KpCR3 (KpCR3) [µM]	Antimicrobial activity (MIC) KpCR2 (KpCR2) [µM]	Antimicrobial activity (MIC) Sa3 (Sa3) [µM]	Antimicrobial activity (MIC) Pa2 (Pa2) [µM]	Antimicrobial activity (MIC) Sa2 (Sa2; 24 h) [µM]	cytotoxicity (HaCaT cells [3]) [%]	proteolytic stability in human serum (in words) ([1]; within 120 min)	Antimicrobial activity (MIC) Sa1 (Sa1; MRSA clinical isolate) [µM]	Antimicrobial activity (MIC) Sa2 (Sa2; MRSA clinical isolate) [µM]
CCCCC(=O)Nc1ccc(C[C@H](N)C(=O)N[C@H](C(=O)N2CCC[C@H]2C(=O)N[C@@H](Cc2c[nH]c3ccccc23)C(=O)N[C@@H](Cc2ccccc2)C(=O)N[C@@H](CO)C(=O)N[C@@H](CCCCN)C(=O)N[C@@H](Cc2ccccc2)C(=O)N[C@H](CC(C)C)C(=O)N[C@H](CCCCN)C(=O)N[C@@H](CCCNC(=N)N)C(=O)N[C@H](C(=O)N[C@@H](CC(C)C)C(N)=O)[C@@H](C)CC)C(C)C)cc1 [C, H-Phe(4-NHCO(CH2)3CH3)-Val-Pro-Trp-Phe-Ser-Lys-Phe-DLeu-DLys-Arg-Ile- Leu-NH2] (H-[Phe(4-NH2)](Pentanoyl)VPWFSKF[dL][dK]RIL-NH2)	80	up to 1 h	13.29	25	25	12.5	12.5	12.5	12.5	12.5	25	12.5	–	–	–	–
CC[C@H](C)[C@H](NC(=O)[C@H](CCCNC(=N)N)NC(=O)[C@@H](CCCCN)NC(=O)[C@@H](CC(C)C)NC(=O)[C@H](Cc1ccccc1)NC(=O)[C@H](CCCCN)NC(=O)[C@H](CO)NC(=O)[C@H](Cc1ccccc1)NC(=O)[C@H](Cc1c[nH]c2ccccc12)NC(=O)[C@@H]1CCCN1C(=O)[C@@H](NC(=O)[C@@H](N)Cc1ccccc1)C(C)C)C(=O)N[C@@H](CC(C)C)C(N)=O [Compound 1B, H-Phe-Val-Pro-Trp-Phe-Ser-Lys-Phe-DLeu-DLys-Arg-Ile-Leu-NH2] (H-FVPWFSKF[dL][dK]RIL-NH2)	–	–	–	12.5	12.5	12.5	–	12.5	12.5	6.25	12.5	–	28.22	rapidly degraded	12.5	12.5
